Results on 6 molecules are retold here after ChEMBL document CHEMBL4387732, “Capsaicin-like analogue induced selective apoptosis in A2058 melanoma cells: Design, synthesis and molecular modeling” (Bioorg Med Chem, 2019).

Calls of active or inactive are those of the source. The calls are words filed in the database; no cut-off is given here.

Assay [1] deals with SK-MEL-25. Description: Cytotoxicity against human SK-MEL-25 cells assessed as decrease in cell viability incubated for 24 hrs by MTT assay. Type of assay: functional, cell-based. To be noted: SK-MEL-25, 24 h.
Assay [2] relates to A2058. Briefly: Cytotoxicity against human A2058 cells assessed as decrease in cell viability incubated for 24 hrs by MTT assay. In kind it is functional, cell-based. Conditions: A2058, 24 h.
Assay [3] has as its system U-87 MG. Description: Cytotoxicity against human U87 cells assessed as decrease in cell viability incubated for 24 hrs by MTT assay. In kind it is functional, cell-based, U-87MG ATCC. On the technique in general: Tetrazolium dyes change colour on reduction, which living cells bring about.
Assay [4] relates to B16-F10. Description: Cytotoxicity against mouse B16F10 cells assessed as decrease in cell viability incubated for 24 hrs by MTT assay. Type of assay: functional, cell-based. Conditions: B16-F10, 24 h.
Assay [5] can be described thus: Cytotoxicity against human T75 cells assessed as decrease in cell viability incubated for 24 hrs by MTT assay. In kind it is cell-based.
Assay [6] relates to HEK-293T. Description: Effect on Ca2+ transport in human HEK293T cells incubated for 5 mins by calcium-5 fluorescence dye-based FLIPR assay. Type of assay: functional, cell-based.
The target in assay [7] is T1, Transient receptor potential cation channel subfamily V member 6 (Homo sapiens) (UniProt Q9H1D0).
T1 sequence (whole entry): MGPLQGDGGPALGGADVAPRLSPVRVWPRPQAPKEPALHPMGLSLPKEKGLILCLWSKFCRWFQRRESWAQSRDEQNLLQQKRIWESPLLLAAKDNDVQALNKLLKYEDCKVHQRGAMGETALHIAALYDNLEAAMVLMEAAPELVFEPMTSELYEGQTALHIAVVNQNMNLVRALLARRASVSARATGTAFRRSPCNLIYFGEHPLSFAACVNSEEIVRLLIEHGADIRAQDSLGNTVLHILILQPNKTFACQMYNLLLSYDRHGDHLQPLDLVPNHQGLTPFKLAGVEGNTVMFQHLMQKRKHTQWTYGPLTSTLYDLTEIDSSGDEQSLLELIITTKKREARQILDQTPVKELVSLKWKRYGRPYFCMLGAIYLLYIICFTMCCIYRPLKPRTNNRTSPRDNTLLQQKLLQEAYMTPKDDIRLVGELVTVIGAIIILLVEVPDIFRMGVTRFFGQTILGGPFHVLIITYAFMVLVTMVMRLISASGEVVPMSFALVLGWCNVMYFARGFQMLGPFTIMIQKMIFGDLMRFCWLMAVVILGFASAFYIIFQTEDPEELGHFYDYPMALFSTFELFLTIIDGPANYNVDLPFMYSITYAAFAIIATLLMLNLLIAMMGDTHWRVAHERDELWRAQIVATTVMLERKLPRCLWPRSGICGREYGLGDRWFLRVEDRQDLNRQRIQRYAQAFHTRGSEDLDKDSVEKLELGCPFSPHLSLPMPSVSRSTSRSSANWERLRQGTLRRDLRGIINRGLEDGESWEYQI
Briefly: Agonist activity at human TRPV6 expressed in human HEK293 cells assessed as increase in Ca2+ transport at 100 nM incubated for 5 mins by calcium-5 fluorescence dye-based FLIPR assay. Type of assay: cell-based.

Assay [8] deals with Mus musculus. Description: In-vivo activation of TRPV1 receptor in Swiss mouse assessed as induction of nociception by measuring paw flinching/licking response at 5.2 nmol/paw administrated via intraplantar route and measured for first 5 mins post treatment. In kind it is functional, organism-based.
Assay [9] in a line: Selectivity index, ratio of IC50 for human T75 cells to IC50 for human A2058 cells.
The test system of assay [10] is MCF7. Briefly: Cytotoxicity against human MCF7 cells assessed as decrease in cell viability incubated for 24 hrs by MTT assay. In kind it is functional, cell-based.
For assay [11], the system named is HeLa. Briefly: Cytotoxicity against human HeLa cells assessed as decrease in cell viability incubated for 24 hrs by MTT assay. Type of assay: functional, cell-based.
The subject of assay [12] is B16-F10. Briefly: Cell cycle arrest in mouse B16F10 cells assessed as variation in subG0/G1 population at 12.5 to 50 uM incubated for 24 hrs by propidium iodide staining-based flow cytometric analysis. Type of assay: functional. For orientation: In flow cytometry, cells or beads pass a laser one at a time.
Assay [13] has as its system A2058. Description: Cell cycle arrest in human A2058 cells assessed as accumulation of cells in subG0/G1 phase at 12.5 to 50 uM incubated for 24 hrs by propidium iodide staining-based flow cytometric analysis. Type of assay: functional.
Assay [14] has as its system B16-F10. Description: Cell cycle arrest in mouse B16F10 cells assessed as increase the G0/G1 phase incubated for 24 hrs by propidium iodide staining-based flow cytometric analysis. Type of assay: functional.
The test system of assay [15] is A2058. Description: Induction of apoptosis in human A2058 cells assessed as increase in cleaved caspase 3 expression level incubated for 6 hrs by Western blot analysis. In kind it is functional, cell-based. Background: Immunoblotting shows a protein as a band on a membrane.
In assay [16] the test system is A2058. Briefly: Cytotoxicity against human A2058 cells assessed as alteration in cell morphology incubated for 24 hrs by microscopic method. Type of assay: functional, cell-based.
The subject of assay [17] is A2058. Briefly: Cytotoxicity against human A2058 cells assessed as loss of cell adhesion incubated for 24 hrs by microscopic method. In kind it is functional, cell-based.
The subject of assay [18] is A2058. Briefly: Cytotoxicity against human A2058 cells assessed as induction of withdrawal of cytoplasm incubated for 24 hrs by microscopic method. Type of assay: functional, cell-based.
The test system of assay [19] is A2058. Briefly: Cytotoxicity against human A2058 cells assessed as loss of refringence incubated for 24 hrs by microscopic method. In kind it is functional, cell-based.
Assay [20] concerns A2058. Description: Cytotoxicity against human A2058 cells assessed as marked formation of apoptotic bodies incubated for 24 hrs by microscopic method. Type of assay: functional, cell-based.
The test system of assay [21] is B16-F10. Briefly: Cytotoxicity against mouse B16F10 cells assessed as cell cycle arrest incubated for 24 hrs by microscopic method. Type of assay: functional, cell-based.
Assay [22] concerns A2058. Briefly: Cell cycle arrest in human A2058 cells assessed as accumulation of cells in G0/G1 phase incubated for 24 hrs by propidium iodide staining-based flow cytometric analysis. Type of assay: functional.
The test system of assay [23] is A2058. Briefly: Induction of apoptosis in human A2058 cells assessed as ratio of beta-actin to B-RAF expression incubated for 1 hrs by Western blot analysis. In kind it is functional.
Assay [24] concerns A2058. Briefly: Induction of apoptosis in human A2058 cells assessed as ratio of beta-actin to B-RAF expression incubated for 3 hrs by Western blot analysis. In kind it is functional.
Assay [25] deals with A2058. Description: Induction of apoptosis in human A2058 cells assessed as ratio of beta-actin to B-RAF expression incubated for 6 hrs by Western blot analysis. Type of assay: functional.
In assay [26] the test system is A2058. Briefly: Induction of apoptosis in human A2058 cells assessed as ratio of beta-actin to C-RAF expression incubated for 1 hrs by Western blot analysis. Type of assay: functional.
In assay [27] the test system is A2058. Briefly: Induction of apoptosis in human A2058 cells assessed as ratio of beta-actin to C-RAF expression incubated for 3 hrs by Western blot analysis. In kind it is functional.
Assay [28] deals with A2058. Description: Induction of apoptosis in human A2058 cells assessed as ratio of beta-actin to C-RAF expression incubated for 6 hrs by Western blot analysis. Type of assay: functional.
The test system of assay [29] is A2058. Briefly: Induction of apoptosis in human A2058 cells assessed as ratio of beta-actin to BCL-XL expression incubated for 1 hrs by Western blot analysis. In kind it is functional.
For assay [30], the system named is A2058. Briefly: Induction of apoptosis in human A2058 cells assessed as ratio of beta-actin to BCL-XL expression incubated for 3 hrs by Western blot analysis. In kind it is functional.
Assay [31] concerns A2058. Briefly: Induction of apoptosis in human A2058 cells assessed as ratio of beta-actin to BCL-XL expression incubated for 6 hrs by Western blot analysis. In kind it is functional.
In assay [32] the test system is A2058. Description: Induction of apoptosis in human A2058 cells assessed as ratio of beta-actin to caspase 3 expression incubated for 1 hrs by Western blot analysis. Type of assay: functional.
The test system of assay [33] is A2058. Briefly: Induction of apoptosis in human A2058 cells assessed as ratio of beta-actin to caspase 3 expression incubated for 3 hrs by Western blot analysis. Type of assay: functional.
The test system of assay [34] is A2058. Briefly: Induction of apoptosis in human A2058 cells assessed as ratio of beta-actin to caspase 3 expression incubated for 6 hrs by Western blot analysis. In kind it is functional.
The target in assay [35] is T2, Transient receptor potential cation channel subfamily V member 1 (Homo sapiens, UniProt Q8NER1). Description: Agonist activity at human TRPV1 expressed in HEK293T cells assessed as increase in Ca2+ transport incubated for 5 mins by calcium-5 fluorescence dye-based FLIPR assay. Type of assay: cell-based.
T2 sequence (Q8NER1 whole entry): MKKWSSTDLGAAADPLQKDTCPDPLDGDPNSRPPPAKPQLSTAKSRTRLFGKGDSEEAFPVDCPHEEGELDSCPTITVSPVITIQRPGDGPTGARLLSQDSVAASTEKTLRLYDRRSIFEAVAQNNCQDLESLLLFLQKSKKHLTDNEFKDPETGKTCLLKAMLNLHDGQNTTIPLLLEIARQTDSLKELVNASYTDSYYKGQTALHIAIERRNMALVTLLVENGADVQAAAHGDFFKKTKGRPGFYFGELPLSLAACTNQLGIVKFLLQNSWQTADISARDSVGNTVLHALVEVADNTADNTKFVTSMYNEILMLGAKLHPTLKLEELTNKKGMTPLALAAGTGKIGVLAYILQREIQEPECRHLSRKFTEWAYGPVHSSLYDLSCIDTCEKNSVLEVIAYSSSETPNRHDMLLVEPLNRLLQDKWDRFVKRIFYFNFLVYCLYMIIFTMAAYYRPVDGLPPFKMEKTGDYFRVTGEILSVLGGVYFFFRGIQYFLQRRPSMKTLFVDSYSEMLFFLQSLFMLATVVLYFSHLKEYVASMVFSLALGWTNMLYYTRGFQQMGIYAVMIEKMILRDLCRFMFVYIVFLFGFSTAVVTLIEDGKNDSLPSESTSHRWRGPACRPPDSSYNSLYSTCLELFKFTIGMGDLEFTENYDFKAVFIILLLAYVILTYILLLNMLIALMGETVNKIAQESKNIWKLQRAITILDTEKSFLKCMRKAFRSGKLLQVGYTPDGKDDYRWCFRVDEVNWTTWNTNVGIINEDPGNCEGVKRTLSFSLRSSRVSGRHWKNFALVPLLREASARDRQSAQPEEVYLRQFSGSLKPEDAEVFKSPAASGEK
Assay [36] has as its target T2, Transient receptor potential cation channel subfamily V member 1. Description: Agonist activity at human TRPV1 expressed in human HEK293T cells assessed as increase in Ca2+ transport at 10 uM incubated for 5 mins in presence of TRPV1 antagonist capsazepine by calcium-5 fluorescence dye-based FLIPR assay. Type of assay: cell-based.
Assay [37] addresses T1, Transient receptor potential cation channel subfamily V member 6 (Homo sapiens). Description: Agonist activity at human TRPV6 expressed in human HEK293 cells assessed as increase in Ca2+ transport at 50 uM incubated for 5 mins by calcium-5 fluorescence dye-based FLIPR assay. Type of assay: cell-based.
The target is the same in assay [38]. Briefly: Antagonist activity at human TRPV6 expressed in human HEK293 cells assessed as reduction in Ca2+ transport at 2.5 uM incubated for 5 mins by calcium-5 fluorescence dye-based FLIPR assay. In kind it is cell-based.

As to `COc1cc(CNC(=O)CCCC/C=C/C(C)C)ccc1O` [CAPSAICIN], the IC50 in assay [1], in assay [2], in [3], in assay [4] and in assay [5] was > 100 µM throughout. Besides, the result in assay [6] and in [7] was inactive. In addition, the result in [8] was Active.

For `COc1ccc(NC(=O)NCc2ccc(O)c(OC)c2)cc1`, the “Ratio IC50” value in assay [9] was >1.08. Further, the IC50 was 91.8 µM in assay [1]; 92.5 µM in [2]; > 100 µM in [3]; > 100 µM in [4]; > 100 µM in [5]. Moreover, the outcome in [10] and in [11] was inactive.

On to `CCCCCCNC(=S)NCc1ccc2c(c1)OCO2`, for which the outcome in assay [12], in assay [10], in [11], in assay [6], in [36] and in [37] was inactive. For the same molecule, the result in assay [8] was inactive. In addition, the “Ratio IC50” value in assay [9] is >1.8. Further, the result in assay [13], in assay [15], in assay [16], in assay [17], in [18] and in assay [19] was Active. The result in [20] and in assay [21] was Active. For the same molecule, the Activity entry in assay [14] and in assay [22] was “Dose-dependent effect” throughout. The IC50 was 67.2 µM in assay [1]; 55.2 µM in assay [2]; 87 µM in assay [3]; > 100 µM in assay [4]; > 100 µM in assay [5]. In addition, the Ratio in assay [23] was 0.45; in assay [24], 0.48; in assay [25], 0.52; in assay [26] it was 0.6; in assay [27], 0.49; in [28], 0.32. In addition, the Ratio in assay [29] is 1.22; in [30], 1.2; in [31], 0.6; in assay [32], 1.18; in assay [33], 1.11; in [34], 0.6. Besides, in [35], the EC50 was 4.62 µM.

Regarding `Cc1cccc([C@H]2CC[C@@H](N3CCN(c4cccnc4)CC3)CC2)c1`, in [38], the inhibition entry was “Active”.

Regarding `COc1cc(CNC(=O)Nc2ccc(Cl)cc2)ccc1O`, the “Ratio IC50” value in [9] was >1.18. Further, the IC50 in assay [1] was 90.5 µM; in [2], 84.5 µM; in assay [3] it was 92.5 µM; in assay [4], > 100 µM; in assay [5] it was > 100 µM. Besides, the outcome in assay [10] and in [11] was inactive.

Regarding `COc1cc(CNC(=O)Nc2ccc([N+](=O)[O-])cc2)ccc1O`, the “Ratio IC50” value in assay [9] is >1.1. Besides, the IC50 in assay [1] was 98.7 µM; in [2] it was 98.2 µM; in [3], 98.5 µM; in [4], > 100 µM; in assay [5], > 100 µM. Moreover, the outcome in assay [10] and in assay [11] was inactive.

Broadly, the IC50 is the point on the concentration scale where inhibition reaches its midpoint. As a reminder, the EC50 is the concentration giving half of the maximal effect.
